Assay results taken from patent US11208422B2, “Substituted bridged diazepane derivatives and use thereof as TASK-1 and TASK-3 inhibitors” (Bayer Pharma Aktiengesellschaft, priority 2017, dated 2021).

Columns and labels:
recombinant TASK-3 = recombinant TASK-3 (Homo sapiens (Human), UniProt Q9NPC2); experiment: Inhibition of recombinant TASK-3 in stably transfected CHO cells (KCl-induced depolarization, voltage-sensitive dye, FLIPR); assay type: cell-based; settings: depolarization induced by 40 mM potassium chloride, some mean values from multiple determinations
Chain of recombinant TASK-3 (Q9NPC2 whole entry): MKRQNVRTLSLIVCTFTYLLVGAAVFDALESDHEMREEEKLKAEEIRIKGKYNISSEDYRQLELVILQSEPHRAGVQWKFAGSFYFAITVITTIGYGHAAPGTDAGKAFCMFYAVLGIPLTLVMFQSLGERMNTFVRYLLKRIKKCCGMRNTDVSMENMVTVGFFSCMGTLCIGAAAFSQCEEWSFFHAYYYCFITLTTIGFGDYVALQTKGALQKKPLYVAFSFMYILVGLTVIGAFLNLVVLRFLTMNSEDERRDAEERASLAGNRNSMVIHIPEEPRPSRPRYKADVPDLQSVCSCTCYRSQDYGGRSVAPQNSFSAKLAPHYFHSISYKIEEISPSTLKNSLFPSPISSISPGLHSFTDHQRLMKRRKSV
Method: (§1) The compounds of the invention were tested here with administration of 40 mM of potassium chloride in the presence of a voltage-sensitive dye using the method described in detail in the following references [Whiteaker et al., Validation of FLIPR membrane potential dye for high-throughput screening of potassium channel modulators, J. Biomol. Screen. 6 (5), 305-312 (2001); Molecular Devices FLIPR Application Note: Measuring membrane potential using the FLIPR® membrane potential assay kit on Fluorometric Imaging Plate Reader (FLIPR®) systems, http://www.moleculardevices.com/reagents-supplies/assay-kits/ion-channels/flipr-membrane-potential-assay-kits]. The activity of the test substances was determined as their ability to inhibit a depolarization induced in the recombinant cells by 40 mM potassium chloride. The concentration which can block half of this depolarization is referred to as IC50.

recombinant TASK-1 = recombinant TASK-1 (Homo sapiens (Human), UniProt O14649); experiment: Inhibition of recombinant TASK-1 in stably transfected CHO cells (KCl-induced depolarization, voltage-sensitive dye, FLIPR); assay type: cell-based; settings: depolarization induced by 40 mM potassium chloride, some mean values from multiple determinations
Chain of recombinant TASK-1 (O14649 whole entry): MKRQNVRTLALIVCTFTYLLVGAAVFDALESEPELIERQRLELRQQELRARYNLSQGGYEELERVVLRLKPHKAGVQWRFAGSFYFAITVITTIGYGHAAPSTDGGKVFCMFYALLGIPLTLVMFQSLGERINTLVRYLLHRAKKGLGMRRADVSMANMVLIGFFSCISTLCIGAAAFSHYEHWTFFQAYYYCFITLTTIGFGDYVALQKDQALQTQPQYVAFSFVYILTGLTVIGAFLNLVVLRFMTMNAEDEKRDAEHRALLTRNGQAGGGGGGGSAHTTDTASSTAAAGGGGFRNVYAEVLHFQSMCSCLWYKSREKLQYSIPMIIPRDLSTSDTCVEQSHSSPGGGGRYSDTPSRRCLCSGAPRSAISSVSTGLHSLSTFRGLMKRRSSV
Method: as §1

SMILES	IC50 (recombinant TASK-3)	IC50 (recombinant TASK-1)
O=C(c1ccccc1F)N1C2CCC1CN(Cc1c(-c3ccc(Cl)cc3)nc3ccccn13)CC2 (racemic) [Example 69, [3-{[2-(4-chlorophenyl)imidazo[1,2-a]pyridin-3-yl]methyl}-3,9-diazabicyclo[4.2.1]non-9-yl](2-fluorophenyl)methanone]	62 nM	1400 nM
COc1cccc(C(=O)N2C3CCC2CN(Cc2c(-c4ccc(Cl)cc4)nc4ccccn24)CC3)n1 (racemic) [Example 70, [3-{[2-(4-chlorophenyl)imidazo[1,2-a]pyridin-3-yl]methyl}-3,9-diazabicyclo[4.2.1]non-9-yl](6-methoxypyridin-2-yl)methanone]	4.7 nM	305 nM
O=C(c1ccccc1F)N1C2CCN(Cc3c(-c4ccc(Cl)cc4)nc4ccccn34)CC1COC2 (racemic) [Example 71, (3-{[2-(4-chlorophenyl)imidazo[1,2-a]pyridin-3-yl]methyl}-8-oxa-3,10-diazabicyclo[4.3.1]dec-10-yl](2-fluorophenyl)methanone]	31 nM	740 nM
COc1cccc(C(=O)N2C3CCN(Cc4c(-c5ccc(Cl)cc5)nc5ccccn45)CC2COC3)n1 (racemic) [Example 72, [3-{[2-(4-chlorophenyl)imidazo[1,2-a]pyridin-3-yl]methyl}-8-oxa-3,10-diazabicyclo[4.3.1]dec-10-yl](6-methoxypyridin-2-yl)methanone]	5.1 nM	120 nM
Cc1nonc1C(=O)N1C2CCN(Cc3c(-c4ccc(Cl)cc4)nc4ccccn34)CC1COC2 (racemic) [Example 73, [3-{[2-(4-chlorophenyl)imidazo[1,2-a]pyridin-3-yl]methyl}-8-oxa-3,10-diazabicyclo[4.3.1]dec-10-yl](4-methyl-1,2,5-oxadiazol-3-yl)methanone]	5 nM	99 nM
O=C(c1ccccc1F)N1C2CCN(Cc3c(-c4ccc(Cl)cc4)nc4ncccn34)CC1COC2 (racemic) [Example 74, [3-{[2-(4-chlorophenyl)imidazo[1,2-a]pyrimidin-3-yl]methyl}-8-oxa-3,10-diazabicyclo[4.3.1]dec-10-yl](2-fluorophenyl)methanone]	200 nM	5000 nM
COc1cccc(C(=O)N2C3CCN(Cc4c(-c5ccc(Cl)cc5)nc5ncccn45)CC2COC3)n1 (racemic) [Example 75, [3-{[2-(4-chlorophenyl)imidazo[1,2-a]pyrimidin-3-yl]methyl}-8-oxa-3,10-diazabicyclo[4.3.1]dec-10-yl](6-methoxypyridin-2-yl)methanone]	77 nM	2300 nM
Cc1nonc1C(=O)N1C2CCN(Cc3c(-c4ccc(Cl)cc4)nc4ncccn34)CC1COC2 (racemic) [Example 76, [3-{[2-(4-chlorophenyl)imidazo[1,2-a]pyrimidin-3-yl]methyl}-8-oxa-3,10-diazabicyclo[4.3.1]dec-10-yl](4-methyl-1,2,5-oxadiazol-3-yl)methanone]	66 nM	1400 nM
Nc1nonc1C(=O)N1C2CCN(Cc3c(-c4ccc(Cl)cc4)nc4ncccn34)CC1COC2 (racemic) [Example 77, (4-amino-1,2,5-oxadiazo1-3-yl)[3-{[2-(4-chlorophenyl)imidazo[1,2-a]pyrimidin-3-yl]methyl}-8-oxa-3,10-diazabicyclo[4.3.1]dec-10-yl]methanone]	270 nM	3300 nM
COc1ccc(F)c(C(=O)N2C3CCN(Cc4c(-c5ccc(Cl)cc5)nc5ccccn45)CC2COC3)n1 (racemic) [Example 92, [3-{[2-(4-chlorophenyl)imidazo[1,2-a]pyridin-3-yl]methyl}-8-oxa-3,10-diazabicyclo[4.3.1]dec-10-yl](3-fluoro-6-methoxypyridin-2-yl)methanone]	2.5 nM	85 nM
COc1ccc(Cl)c(C(=O)N2C3CCC2CN(Cc2c(-c4ccc(Cl)cc4)nc4ncccn24)CC3)n1 (racemic) [Example 99, (3-chloro-6-methoxypyridin-2-yl)(3-{[2-(4-chlorophenyl)imidazo[1,2-a]pyrimidin-3-yl]methyl}-3,9-diazabicyclo[4.2.1]non-9-yl)methanone]	34 nM	290 nM
COc1ccc(Cl)c(C(=O)N2C3CCC2CN(Cc2c(-c4ccc(Cl)cn4)nc4ccccn24)CC3)n1 (racemic) [Example 100, (3-chloro-6-methoxypyridin-2-yl)(3-{[2-(5-chloropyridin-2-yl)imidazo[1,2-a]pyridin-3-yl]methyl}-3,9-diazabicyclo[4.2.1]non-9-yl)methanone]	42 nM	370 nM
COc1ccc(F)c(C(=O)N2C3CCC2CN(Cc2c(-c4ccc(Cl)cn4)nc4ccccn24)CC3)n1 (single isomer, unassigned) [Example 16, [3-{[2-(5-Chloropyridin-2-yl)imidazo[1,2-a]pyridin-3-yl]methyl}-3,9-diazabicyclo[4.2.1]non-9-yl](3-fluoro-6-methoxypyridin-2-yl)methanone]	65 nM	1700 nM
COc1ccc(F)c(C(=O)N2CCC3CCC2CN3Cc2c(-c3ccc(Cl)cc3)nc3ncccn23)n1 (single isomer, unassigned) [Example 17, [6-{[2-(4-Chlorophenyl)imidazo[1,2-a]pyrimidin-3-yl]methyl}-2,6-diazabicyclo[3.2.2]non-2-yl](3-fluoro-6-methoxypyridin-2-yl)methanone]	15 nM	3300 nM
COc1ccc(F)c(C(=O)N2C3CCC2CN(Cc2c(-c4ccc(Cl)cc4)nc4ccccn24)CC3)n1 (single isomer, unassigned) [Example 78, [3-{[2-(4-chlorophenyl)imidazo[1,2-a]pyridin-3-yl]methyl}-3,9-diazabicyclo[4.2.1]non-9-yl](3-fluoro-6-methoxypyridin-2-yl)methanone]	5 nM	220 nM
COc1ccc(F)c(C(=O)N2C3CCC2CN(Cc2c(-c4ccc(Cl)cc4)nc4ccccn24)CC3)n1 (single isomer, unassigned) [Example 79, [3-{[2-(4-chlorophenyl)imidazo[1,2-a]pyridin-3-yl]methyl}-3,9-diazabicyclo[4.2.1]non-9-yl](3-fluoro-6-methoxypyridin-2-yl)methanone]	11 nM	290 nM
O=C(c1ccccc1F)N1C2CCC1CN(Cc1c(-c3ccc(Cl)cc3)nc3ncccn13)CC2 (single isomer, unassigned) [Example 80]	93 nM	4500 nM
COc1ccc(F)c(C(=O)N2C3CCC2CN(Cc2c(-c4ccc(Cl)cc4)nc4ncccn24)CC3)n1 (single isomer, unassigned) [Example 82, [3-{[2-(4-chlorophenyl)imidazo[1,2-a]pyrimidin-3-yl]methyl}-3,9-diazabicyclo[4.2.1]non-9-yl](3-fluoro-6-methoxypyridin-2-yl)methanone]	1.4 nM	30 nM
COc1ccc(F)c(C(=O)N2C3CCC2CN(Cc2c(-c4ccc(Cl)cc4)nc4ncccn24)CC3)n1 (single isomer, unassigned) [Example 83, [3-{[2-(4-chlorophenyl)imidazo[1,2-a]pyrimidin-3-yl]methyl}-3,9-diazabicyclo[4.2.1]non-9-yl](3-fluoro-6-methoxypyridin-2-yl)methanone]	17 nM	410 nM
COc1cccc(C(=O)N2C3CCC2CN(Cc2c(-c4ccc(Cl)cn4)nc4ccccn24)CC3)n1 (single isomer, unassigned) [Example 84, [3-{[2-(5-chloropyridin-2-yl)imidazo[1,2-a]pyridin-3-yl]methyl}-3,9-diazabicyclo[4.2.1]non-9-yl](6-methoxypyridin-2-yl)methanone]	25 nM	350 nM
COc1cccc(C(=O)N2C3CCC2CN(Cc2c(-c4ccc(Cl)cn4)nc4ccccn24)CC3)n1 (single isomer, unassigned) [Example 85, [3-{[2-(5-chloropyridin-2-yl)imidazo[1,2-a]pyridin-3-yl]methyl}-3,9-diazabicyclo[4.2.1]non-9-yl](6-methoxypyridin-2-yl)methanone]	370 nM	6300 nM
COc1cccc(C(=O)N2C3CCC2CN(Cc2c(-c4ccc(Cl)cc4)nc4ncccn24)CC3)n1 (single isomer, unassigned) [Example 86, [3-{[2-(4-chlorophenyl)imidazo[1,2-a]pyrimidin-3-yl]methyl}-3,9-diazabicyclo[4.2.1]non-9-yl](6-methoxypyridin-2-yl)methanone]	28 nM	340 nM
COc1cccc(C(=O)N2C3CCC2CN(Cc2c(-c4ccc(Cl)cc4)nc4ncccn24)CC3)n1 (single isomer, unassigned) [Example 87, [3-{[2-(4-chlorophenyl)imidazo[1,2-a]pyrimidin-3-yl]methyl}-3,9-diazabicyclo[4.2.1]non-9-yl](6-methoxypyridin-2-yl)methanone]	210 nM	1600 nM
O=C(c1ccccc1F)N1C2CCC1CN(Cc1c(-c3ccc(Cl)cc3)nc3ccccn13)CC2 (single isomer, unassigned) [Example 88, [3-{[2-(4-Chlorophenyl)imidazo[1,2-a]pyridin-3-yl]methyl}-3,9-diazabicyclo[4.2.1]non-9-yl](2-fluorophenyl)methanone]	1.6 nM	91 nM
O=C(c1ccccc1F)N1C2CCC1CN(Cc1c(-c3ccc(Cl)cc3)nc3ccccn13)CC2 (single isomer, unassigned) [Example 89, [3-{[2-(4-Chlorophenyl)imidazo[1,2-a]pyridin-3-yl]methyl}-3,9-diazabicyclo[4.2.1]non-9-yl](2-fluorophenyl)methanone]	19 nM	310 nM
